# Laboratory results from PMC3314626, “Crystal Structures of the Tetratricopeptide Repeat Domains of Kinesin Light Chains: Insight into Cargo Recognition Mechanisms” (PLoS ONE, 2012).
# Entries after “also recorded” stand apart in the source; their conditions may differ. Read-outs that look alike come from different tables or passages of the source.
# Tests used:
# KLC2-S328N = target: T1, KLC2-S328N (Homo sapiens, UniProt Q9H0B6, S328N); test: ITC binding of JIP1 peptide to KLC2-S328N mutant; settings: 25°C
# T1 construct: KLC2-TPR (residues 217–480, genbank: NP_073733); made in house; host or cells: E. coli BL21(DE3)-CodonPlus-RIL
# Method: (§1) DNAs encoding the TPR domains of KLC1-TPR (residues 228–495, genbank: NP_005543) and KLC2-TPR (residues 217–480, genbank: NP_073733) were amplified by polymerase chain reaction (PCR) using cDNAs obtained from the Mammalian Gene Collection as templates. The PCR products were cloned into a modified version of the expression plasmid pET28-LIC (genbank: EF442785) using an Infusion cloning kit (ClonTech). The KLC1-N343S and KLC2-S328N mutants were prepared with a QuickChange® kit (Stratagene).
# (§2) Binding affinities of the JIP1 peptide (Ac-EYTCPTEDIYLE-COOH), ALC1peptide (Ac-EMDWDDSALT-COOH) (synthesized by Tufts University Core Facility), and ALC1 protein to the KLC1-TPR, KLC2-TPR and their mutants were measured by isothermal titration calorimetry (ITC) (VP-ITC microcalorimeter, MicroCal Inc.). Measurements were performed at 25°C by injecting 5–10 µl of peptide solution (1–3 mM) into a sample chamber containing 60–130 µM KLC1-TPR or KLC2-TPR in 20 mM Bis-Tris, pH 6.5, 500 mM sodium chloride, and 0.5 mM TCEP. For the protein-protein interaction, the sample chamber contained 15 µM of KLC1-TPR and 160 µM of the ALC1 protein in a buffer containing 30 mM HEPES 7.4, 200 mM NaCl, 0.5 mM TCEP. The syringe injections containing peptides and proteins were dissolved and dialyzed in the same buffer as the KLC proteins prior to the experiments. A total of 25 injections were performed with an interval of 300 seconds and a reference power of 13 µcal/second. The heat of dilution was controlled with binding isotherms from reference injections containing the peptide alone prior to fitting of the data. ITC data were analyzed using Origin software (MicroCal Inc) and were fit using a one-site binding model.
# KLC1-TPR [1] = target: T2, KLC1-TPR (Homo sapiens, UniProt Q07866); test: ITC binding of JIP1 or ALC1 peptide to KLC1-TPR; settings: 25°C; for Kd / ΔH: 20 mM Bis-Tris pH 6.5, 500 mM NaCl, 0.5 mM TCEP; for Kd: Kd determined from Ka of one-site fit, Table 3; for Kd / N (binding stoichiometry) / ΔH: ± SD from fit; for ΔS / N (binding stoichiometry): pH 6.5, 500 mM NaCl; for ΔS / N (binding stoichiometry) / ΔH: one-site model; for ΔH: peptide 1–3 mM injected into 60–130 µM KLC1-TPR
# T2 construct: KLC1-TPR (residues 228–495, genbank: NP_005543); made in house; host or cells: E. coli BL21(DE3)-CodonPlus-RIL
# Method: as §1, §2
# KLC1-N343S = target: T3, KLC1-N343S (Homo sapiens, UniProt Q07866, N343S); test: ITC binding of JIP1 or ALC1 peptide to KLC1-N343S mutant; settings: 25°C; for ΔS / N (binding stoichiometry) / Kd / ΔH: one-site model, N.B = no binding was observed; for N (binding stoichiometry) / Kd / ΔH: ± SD from fit; for ΔH: peptide 1–3 mM into chamber, 20 mM Bis-Tris pH 6.5, 500 mM NaCl, 0.5 mM TCEP
# T3 construct: KLC1-TPR (residues 228–495, genbank: NP_005543); made in house; host or cells: E. coli BL21(DE3)-CodonPlus-RIL
# Method: as §1, §2
# KLC2-TPR = target: T4, KLC2-TPR (Homo sapiens, UniProt Q9H0B6); test: ITC binding of JIP1 peptide to KLC2-TPR; settings: 25°C
# T4 construct: KLC2-TPR (residues 217–480, genbank: NP_073733); made in house; host or cells: E. coli BL21(DE3)-CodonPlus-RIL
# Method: as §1, §2
# KLC1-N301A = target: T5, KLC1-N301A (Homo sapiens, UniProt Q07866, N301A); test: ITC binding of ALC1 peptide to KLC1-N301A mutant; settings: 25°C
# T5 construct: KLC1-TPR (residues 228–495, genbank: NP_005543); made in house; host or cells: E. coli BL21(DE3)-CodonPlus-RIL
# Method: as §2
# Tryptophans at position 903 and 973 of ALC1 are crucial in binding to KLC1 as their mutation to alanines disrupt the interaction. There are two negatively charged aspartic acids and a polar serine residue adjacent to the tryptophans. Due to the similarities of the ALC1 residues to those of JIP1, the recognition of ALC1 by KLC1-TPR could also involve a “clamping” feature. However, such clamp must be different from the JIP1 binding polar patch as N343 is not required for ALC1 binding. Also, residues lining the ALC1 binding clamp should be conserved between KLC1-TPR and KLC2-TPR as ALC1 can interact with both isoforms. Possible candidates are N301 and N344 residues in the inner helices of TPR3 and TPR4 of KLC1-TPR. N301 extends toward the neighboring helix and interacts with N344, and is adjacent to K340 and Q341. As these residues are conserved in KLC2-TPR, N301 of KLC1-TPR was mutated into an alanine (KLC1-N301A) and tested its binding behavior towards ALC1 peptide. […] Together, N301 of KLC1-TPR plays an important role in binding of ALC1, probably by forming one of the ALC1 binding clamps.
# KLC1-TPR [2] = target: T2, KLC1-TPR; test: ITC binding of cytosolic domain of ALC1 protein to KLC1-TPR
# Method: as §1, §2
# In order to elucidate a comprehensive view of ALC1 binding to KLC isoforms, the cytosolic domain of ALC1 was purified for the ITC binding studies. […] This would cause the modest increase in binding affinity to KLC1-TPR, compared to the ALC1 peptide. […]
# [3] = pH 6.5, 500 mM NaCl, one-site model
# [4] = pH 6.5, 500 mM NaCl, one-site model, ± SD from fit
# [5] = peptide 1–3 mM into chamber, 20 mM Bis-Tris pH 6.5, 500 mM NaCl, 0.5 mM TCEP, one-site model, ± SD from fit
# [6] = pH 6.5, 500 mM NaCl, N.B = no binding was observed
# T4 sequence (Q9H0B6 217-480): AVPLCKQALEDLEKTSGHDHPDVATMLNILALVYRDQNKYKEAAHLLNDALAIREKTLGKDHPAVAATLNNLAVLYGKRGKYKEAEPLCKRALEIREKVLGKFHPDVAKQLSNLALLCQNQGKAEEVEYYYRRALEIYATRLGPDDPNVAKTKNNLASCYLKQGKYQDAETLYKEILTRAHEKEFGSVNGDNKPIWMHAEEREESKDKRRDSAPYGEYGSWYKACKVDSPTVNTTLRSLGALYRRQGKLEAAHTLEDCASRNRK
# T1 sequence (Q9H0B6 217-480 S328N): as the sequence (Q9H0B6 217-480) above, with S112N counted along it
# T2 sequence (Q07866 228-495): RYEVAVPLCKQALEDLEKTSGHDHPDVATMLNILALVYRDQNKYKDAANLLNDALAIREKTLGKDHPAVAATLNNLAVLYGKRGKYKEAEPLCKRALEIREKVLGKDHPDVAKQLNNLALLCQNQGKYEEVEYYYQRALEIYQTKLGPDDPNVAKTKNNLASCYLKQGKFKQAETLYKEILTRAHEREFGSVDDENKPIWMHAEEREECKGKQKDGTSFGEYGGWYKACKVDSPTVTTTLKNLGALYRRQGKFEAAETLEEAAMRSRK
# T5 sequence (Q07866 228-495 N301A): as the sequence (Q07866 228-495) above, with N74A counted along it
# T3 sequence (Q07866 228-495 N343S): as the sequence (Q07866 228-495) above, with N116S counted along it
compound,measurement,setting,value
"CC[C@H](C)[C@H](NC(=O)[C@H](CC(=O)O)NC(=O)[C@H](CCC(=O)O)NC(=O)[C@@H](NC(=O)[C@@H]1CCCN1C(=O)[C@H](CS)NC(=O)[C@@H](NC(=O)[C@H](Cc1ccc(O)cc1)NC(=O)[C@H](CCC(=O)O)NC(C)=O)[C@@H](C)O)[C@@H](C)O)C(=O)N[C@@H](Cc1ccc(O)cc1)C(=O)N[C@@H](CC(C)C)C(=O)N[C@@H](CCC(=O)O)C(=O)O [JIP1 peptide, Ac-EYTCPTEDIYLE-COOH]",ability to bind (in words),"KLC2-S328N; pH 6.5, 500 mM NaCl",gained binding capacity
same,ΔS,KLC2-S328N; [3],−31.8 eu
same,N (binding stoichiometry),KLC2-S328N; [4],1.18±0.01
same,ΔH,KLC2-S328N; [5],-15.9 ± 1.6 kcal/mol
same,Kd,KLC1-TPR [1],9.4 ± 5.85 µM
same,ΔS,KLC1-TPR [1],17.9 eu
same,N (binding stoichiometry),KLC1-TPR [1],1.02±0.1
same,interaction with KLC1-TPR (in words),"KLC1-TPR [1]; pH 6.5, Figure S3A",specifically binds to KLC1-TPR
same,ΔH,KLC1-TPR [1],-1.52 ± 0.182 kcal/mol
same,ability to bind (in words),"KLC1-N343S; pH 6.5, 500 mM NaCl",lost the ability to bind
same,ΔS,"KLC1-N343S; pH 6.5, 500 mM NaCl",N.B
same,N (binding stoichiometry),"KLC1-N343S; pH 6.5, 500 mM NaCl",N.B
same,Kd,"KLC1-N343S; pH 6.5, 500 mM NaCl, Table 3",N.B
same,ΔH,KLC1-N343S,N.B
same,interaction with KLC2-TPR (in words),"KLC2-TPR; pH 6.5, 500 mM NaCl",no interaction was detected; also recorded: not to KLC2-TPR
same,Kd,KLC2-TPR; [6],N.B
same,N (binding stoichiometry),KLC2-TPR; [6],N.B
same,ΔS,KLC2-TPR; [6],N.B
same,ΔH,"KLC2-TPR; peptide 1–3 mM into 60–130 µM KLC2-TPR, 20 mM Bis-Tris pH 6.5, 500 mM NaCl, 0.5 mM TCEP, N.B = no binding was observed",N.B
"Ac-EMDWDDSALT-OH [ALC1 peptide, Ac-EMDWDDSALT-COOH]",affinity compared with wild type KLC1 (in words),"KLC1-N301A; pH 6.5, 500 mM NaCl",lower affinity than the wild type KLC1
same,ΔS,KLC1-N301A; [3],12.9 eu
same,N (binding stoichiometry),KLC1-N301A; [4],1.02
same,Kd,"KLC1-N301A; pH 6.5, 500 mM NaCl, one-site model, ± SD from fit, Table 3",179 ± 127 µM
same,N (binding stoichiometry),"KLC1-N301A; pH 6.5, 500 mM NaCl, one-site model, ± SD from fit, listed as ALC1",1.02±0.69
same,ΔH,KLC1-N301A; [5],-1.2 ± 0.99 kcal/mol
same,Kd,KLC1-TPR [1],50.3 ± 3.1 µM
same,ΔS,KLC1-TPR [1],11.4 eu
same,N (binding stoichiometry),KLC1-TPR [1],1.85
same,N (binding stoichiometry),KLC1-TPR [1]; listed as ALC1,1.85±0.04
same,ΔH,KLC1-TPR [1],-2.5 ± 0.07 kcal/mol
same,ΔS,"KLC1-N343S; pH 6.5, 500 mM NaCl",14.1 eu
same,N (binding stoichiometry),"KLC1-N343S; pH 6.5, 500 mM NaCl",2.13
same,Kd,"KLC1-N343S; pH 6.5, 500 mM NaCl, Table 3, read-out: Kd",44.3 ± 7.5 µM
same,N (binding stoichiometry),"KLC1-N343S; pH 6.5, 500 mM NaCl, listed as ALC1",2.13±0.15
same,ΔH,KLC1-N343S,-1.7 ± 0.16 kcal/mol
"cytosolic domain of ALC1: purified cytosolic domain of ALC1, containing two KLC1-binding motifs (residues 893–896 and 964–967)",Kd,"KLC1-TPR [2]; 25°C, 15 µM KLC1-TPR, 160 µM ALC1 protein, 30 mM HEPES 7.4, 200 mM NaCl, 0.5 mM TCEP, one-site model",2.4 µM
same,binding stoichiometry,"KLC1-TPR [2]; 25°C, 30 mM HEPES 7.4, 200 mM NaCl, 0.5 mM TCEP, one-site model",0.85
same,affinity compared with the ALC1 peptide (in words),KLC1-TPR [2]; KLC1-TPR,higher affinity than the ALC1 peptide
